The values that follow come from patent US11236129B2, “IL-17A binding peptides and medical uses thereof” (Dompe' Farmaceutici S.P.A., priority 2018, dated 2022).

Data set [1] can be described thus: Isoelectric point, log D and log P (SiriusT3). The format is physicochemical. How it is done: The main physicochemical properties (Isoelectric point (IP), log D (7.4) and log P) of the peptides of Table 8 below were determined by using the SiriusT3 apparatus (Sirius Analytical Instruments Ltd., East Sussex, UK) equipped with an Ag/AgCl double junction reference pH electrode, a Sirius D-PAS spectrometer and a turbidity sensing device. […] An overhead stirrer was used and a temperature probe (Peltier controller) monitored the temperature during the course of the titration. The titration experiments were conducted in 0.15 M KCl Ionic Strength Adjusted solution (ISA water) under a nitrogen atmosphere at a temperature of 25±1° C. All tests were performed using standardized 0.5 M KOH and 0.5 M HCl as titration reagents, for the partition coefficient tests a saturated Octanol in ISA water (5% of ISA water) was used as partition solvent. The pKas were determined by potentiometric method by pH-metric titration. The powder (around 0.5 mg) was dissolved in 1.5 ml of ISA water and the titration was performed in triplicate in the pH range 2.0−12.0.

The format of data set [2] is physicochemical. The note with it: pH 7.8. How it is done: Each lyophilized peptide was weighed in an amber vial. A calculated volume of phosphate buffered solution at pH 7.8 was added in order to directly obtain 10 mM Stock Solutions. The recovered suspensions were stirred for 30 minutes by orbital shaker incubator at 37° C. Subsequent dilutions were performed to obtain the more diluted stock solutions for the less soluble compounds.
In order to evaluate the stability and the solubility, all the stock solutions were stored at 25° C. The title was evaluated by UHPLC-MS analysis in comparison with the standard solutions, at 3 time points: T0, 3 days, 1 week.
The chromatographic profile was evaluated for the quantitative assay while the MS spectra were detected as support in the stability studies.
Each peptide was weighed and directly diluted at 100 μM with the phosphate buffer at pH 7.8. The solutions were stirred for 5 minutes by vortex and heated at 37° C. for 20 minutes. The obtained standard solution was stored at 25° C. in the dark under controlled temperature.
A portion of the stock solutions was collected in an amber vial and diluted to 100 μM by phosphate buffer at pH 7.8 (dilution factor, 1:100).
Reversed-phase UHPLC was performed operating at a flow rate of 0.3 ml/min with a Luna Omega Polar C18 column ([…] 1.6 μm, 2.1×100 mm). Solvent A was 0.5% Formic Acid in water and solvent B was 0.5% Formic Acid in acetonitrile. First, samples were loaded onto the column and washed isocratically at 10% B for 3 min. Then, a gradient of 10-95% B was run over 22 min, held at 95% for 2 min, and then decreased to 10% over 1 min and held, for the pressure stabilization, for 5 min. UV Absorption was monitored by DAD (220-400 nm). ESI-MS ion trap was used for the monitoring of TIC.

In data set [3] the target is IL-17RA/IL17RC dimerization induced by IL-17A (Homo sapiens, UniProt Q16552). Briefly: IL-17RA/IL17RC dimerization assay in response to IL-17A (PathHunter Cytokine Receptor Assay). In kind it is cell-based. The note with it: IL-17A at EC80; read-out: IC50 in IL-17RA/IL7RC dimerization assay. In short, it runs like this: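 Receptor dimerization was read as chemiluminescence from complemented β-galactosidase after IL-17A at EC80 concentration for 6–16 h at 37 °C. Peptides were added 60 min before agonist, at 37 °C or room temperature, with 1% vehicle. Percent inhibition used the EC80-stimulated and vehicle wells as references.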

Residues, ends and D or L forms follow the SMILES beside them.

IL-17RA/IL17RC dimerization induced by IL-17A, sequence (Q16552 24-155): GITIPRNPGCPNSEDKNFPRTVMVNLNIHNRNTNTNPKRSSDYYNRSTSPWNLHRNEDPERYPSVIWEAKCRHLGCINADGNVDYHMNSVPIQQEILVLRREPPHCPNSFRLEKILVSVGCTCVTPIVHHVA

The term logP denotes a log measure of how a compound divides between an organic and an aqueous phase. Broadly, the solubility is the dissolved amount per volume that the medium holds. In data set [1], `CC[C@H](C)[C@H](NC(C)=O)C(=O)N[C@@H](Cc1c[nH]cn1)C(=O)N[C@H](C(=O)N[C@H](C(=O)N[C@H](C(=O)N1CCC[C@H]1C(=O)N[C@@H](C)C(=O)N[C@@H](CC(=O)O)C(=O)N[C@@H](CC(C)C)C(=O)N[C@@H](Cc1ccc(O)cc1)C(=O)N[C@@H](CCC(=O)O)C(=O)N[C@@H](Cc1c[nH]c2ccccc12)C(=O)N[C@H](C(=O)N[C@@H](CC(N)=O)C(=O)N[C@@H](CCCCN)C(N)=O)[C@@H](C)CC)[C@@H](C)CC)[C@@H](C)O)C(C)C` [SEQ ID NO: 7] (Ac-IHVTIPADLYEWINK-NH2) had a logP of −0.86. Also, the “IP (isoelectric point)” value in data set [1] (25±1° C., 0.15 M KCl) is on record as 5.19. The “Log D (7.4)” value in data set [1] (pH 7.4) is recorded as −1.41. The same compound returned a solubility in data set [2] above 10 mM.
Regarding `CC[C@H](C)[C@H](NC(C)=O)C(=O)N[C@@H](Cc1c[nH]cn1)C(=O)N[C@H](C(=O)N[C@H](C(=O)N[C@H](C(=O)N1CCC[C@H]1C(=O)N[C@@H](CC(C)C)C(=O)N[C@@H](CCC(=O)O)C(=O)N[C@H](C(=O)N[C@@H](Cc1ccccc1)C(=O)N[C@@H](CCC(=O)O)C(=O)N[C@@H](Cc1c[nH]c2ccccc12)C(=O)N[C@@H](C)C(=O)N[C@@H](CCC(N)=O)C(=O)N[C@@H](Cc1c[nH]cn1)C(N)=O)[C@@H](C)CC)[C@@H](C)CC)[C@@H](C)O)C(C)C` [SEQ ID NO: 247] (Ac-IHVTIPLEIFEWAQH-NH2), the IC50 in data set [3] is below 10 µM.
Take `CC[C@H](C)[C@H](NC(C)=O)C(=O)N[C@@H](Cc1c[nH]cn1)C(=O)N[C@H](C(=O)N[C@H](C(=O)N[C@H](C(=O)N1CCC[C@H]1C(=O)N[C@@H](CC(C)C)C(=O)N[C@@H](CCC(=O)O)C(=O)N[C@H](C(=O)N[C@@H](Cc1ccccc1)C(=O)N[C@@H](CCC(=O)O)C(=O)N[C@@H](Cc1c[nH]c2ccccc12)C(=O)N[C@@H](CC(C)C)C(=O)N[C@@H](CCC(N)=O)C(=O)N[C@@H](CCCNC(=N)N)C(N)=O)[C@@H](C)CC)[C@@H](C)CC)[C@@H](C)O)C(C)C` [SEQ ID NO: 248] (Ac-IHVTIPLEIFEWLQR-NH2): in data set [3], the IC50 is below 10 µM.
As to `CC[C@H](C)[C@H](NC(C)=O)C(=O)N[C@@H](Cc1c[nH]cn1)C(=O)N[C@H](C(=O)N[C@H](C(=O)N[C@H](C(=O)N1CCC[C@H]1C(=O)N[C@@H](CC(C)C)C(=O)N[C@@H](CCC(=O)O)C(=O)N[C@H](C(=O)N[C@@H](Cc1ccccc1)C(=O)N[C@@H](CCC(=O)O)C(=O)N[C@@H](Cc1c[nH]c2ccccc12)C(=O)N[C@@H](CC(C)C)C(=O)N[C@@H](CCC(N)=O)C(=O)N[C@@H](Cc1c[nH]cn1)C(N)=O)C(C)C)[C@@H](C)CC)[C@@H](C)O)C(C)C` [SEQ ID NO: 249] (Ac-IHVTIPLEVFEWLQH-NH2), the IC50 in data set [3] was below 10 µM.
Consider `CC[C@H](C)[C@H](NC(C)=O)C(=O)N[C@@H](Cc1c[nH]cn1)C(=O)N[C@H](C(=O)N[C@H](C(=O)N[C@H](C(=O)N1CCC[C@H]1C(=O)NCC(=O)N[C@@H](CCC(=O)O)C(=O)N[C@H](C(=O)N[C@@H](Cc1ccccc1)C(=O)N[C@@H](CCC(=O)O)C(=O)N[C@@H](Cc1c[nH]c2ccccc12)C(=O)N[C@@H](CC(C)C)C(=O)N[C@@H](CCC(N)=O)C(=O)N[C@@H](Cc1c[nH]cn1)C(N)=O)[C@@H](C)CC)[C@@H](C)CC)[C@@H](C)O)C(C)C` [SEQ ID NO: 250] (Ac-IHVTIPGEIFEWLQH-NH2), for which the IC50 in data set [3] was below 10 µM.
Same read-out and setting: under `CC[C@H](C)[C@H](NC(=O)[C@H](CCC(=O)O)NC(=O)[C@H](CCC(N)=O)NC(=O)[C@@H]1CCCN1C(=O)[C@@H](NC(=O)[C@H](CO)NC(=O)[C@H](Cc1ccccc1)NC(=O)[C@H](CCCNC(=N)N)NC(=O)[C@@H](NC(C)=O)C(C)C)C(C)C)C(=O)N[C@@H](Cc1ccc(O)cc1)C(=O)N[C@@H](CCC(=O)O)C(=O)N[C@@H](Cc1c[nH]c2ccccc12)C(=O)N[C@H](C(=O)N[C@@H](CCCNC(=N)N)C(=O)N[C@@H](CCCNC(=N)N)C(N)=O)C(C)C` [SEQ ID NO: 251] (Ac-VRFSVPQEIYEWVRR-NH2) stands below 10 µM; under `CC[C@H](C)[C@H](NC(=O)[C@H](CCC(=O)O)NC(=O)[C@H](CC(C)C)NC(=O)[C@@H]1CCCN1C(=O)[C@@H](NC(=O)[C@H](CO)NC(=O)[C@@H](NC(=O)[C@H](CCCNC(=N)N)NC(=O)[C@H](CC(C)C)NC(C)=O)[C@@H](C)CC)C(C)C)C(=O)N[C@@H](Cc1ccccc1)C(=O)N[C@@H](CCC(=O)O)C(=O)N[C@@H](Cc1c[nH]c2ccccc12)C(=O)N[C@@H](CC(C)C)C(=O)N[C@@H](CCC(N)=O)C(=O)N[C@@H](Cc1c[nH]cn1)C(N)=O` [SEQ ID NO: 252] (Ac-LRISVPLEIFEWLQH-NH2), below 10 µM.
On to `CC[C@H](C)[C@H](NC(=O)[C@H](CCC(=O)O)NC(=O)[C@H](CC(C)C)NC(=O)[C@@H]1CCCN1C(=O)[C@@H](NC(=O)[C@H](CO)NC(=O)CNC(=O)[C@H](CCCNC(=N)N)NC(=O)[C@H](CC(C)C)NC(C)=O)C(C)C)C(=O)N[C@@H](Cc1ccccc1)C(=O)N[C@@H](CCC(=O)O)C(=O)N[C@@H](Cc1c[nH]c2ccccc12)C(=O)N[C@@H](CC(C)C)C(=O)N[C@@H](CCC(N)=O)C(=O)N[C@@H](Cc1c[nH]cn1)C(N)=O` [SEQ ID NO: 253] (Ac-LRGSVPLEIFEWLQH-NH2), for which the IC50 in data set [3] is below 10 µM.
The same measure, in the same setting: under `CC[C@H](C)[C@H](NC(=O)[C@H](CCC(=O)O)NC(=O)[C@H](CC(C)C)NC(=O)[C@@H]1CCCN1C(=O)[C@@H](NC(=O)[C@H](CO)NC(=O)[C@@H](NC(=O)[C@H](CCCCN)NC(=O)[C@@H](NC(C)=O)C(C)C)[C@@H](C)CC)C(C)C)C(=O)N[C@@H](Cc1ccccc1)C(=O)N[C@@H](CCC(=O)O)C(=O)N[C@@H](Cc1c[nH]c2ccccc12)C(=O)N[C@@H](CC(C)C)C(=O)N[C@@H](CCC(N)=O)C(=O)N[C@@H](Cc1c[nH]cn1)C(N)=O` [SEQ ID NO: 254] (Ac-VKISVPLEIFEWLQH-NH2) stands below 10 µM.
As to `CC(=O)N[C@H](C(=O)N[C@@H](CCC(=O)O)C(=O)N[C@@H](Cc1ccccc1)C(=O)N[C@@H](CC(N)=O)C(=O)N[C@@H](Cc1ccccc1)C(=O)N1CCC[C@H]1C(=O)N[C@@H](CCC(N)=O)C(=O)N[C@@H](CCC(N)=O)C(=O)N[C@H](C(=O)N[C@@H](Cc1ccc(O)cc1)C(=O)N[C@@H](CCC(=O)O)C(=O)N[C@@H](Cc1c[nH]c2ccccc12)C(=O)N[C@@H](Cc1ccccc1)C(=O)N[C@@H](CC(=O)O)C(=O)N[C@@H](CC(=O)O)C(N)=O)C(C)C)C(C)C` [SEQ ID NO: 255] (Ac-VEFNFPQQVYEWFDD-NH2), the IC50 in data set [3] is below 10 µM.
For the compound `CC(=O)N[C@H](C(=O)N[C@@H](CCC(=O)O)C(=O)N[C@@H](Cc1ccccc1)C(=O)N[C@@H](CC(N)=O)C(=O)N[C@@H](Cc1ccccc1)C(=O)N1CCC[C@H]1C(=O)N[C@@H](CCC(N)=O)C(=O)N[C@@H](CCC(N)=O)C(=O)N[C@H](C(=O)N[C@@H](Cc1ccc(O)cc1)C(=O)N[C@@H](CCC(=O)O)C(=O)N[C@@H](Cc1c[nH]c2ccccc12)C(=O)N[C@H](C(=O)N[C@@H](CCCNC(=N)N)C(=O)N[C@@H](CCCNC(=N)N)C(N)=O)C(C)C)C(C)C)C(C)C` [SEQ ID NO: 256] (Ac-VEFNFPQQVYEWVRR-NH2), in data set [3], the IC50 is below 10 µM.
As for `CC(=O)N[C@H](C(=O)N[C@H](C(=O)N[C@H](C(=O)N[C@@H](Cc1ccc(O)cc1)C(=O)N[C@H](C(=O)N[C@@H](Cc1ccccc1)C(=O)N[C@@H](CC(N)=O)C(=O)N[C@@H](CCC(=O)O)C(=O)N[C@@H](CCC(N)=O)C(=O)N[C@@H](Cc1c[nH]cn1)C(=O)N[C@@H](CCC(N)=O)C(=O)N[C@@H](CCC(=O)O)C(=O)N[C@@H](Cc1ccc(O)cc1)C(=O)N[C@H](C(=O)N[C@@H](CCCNC(=N)N)C(=O)N[C@@H](CCCCN)C(N)=O)C(C)C)C(C)C)C(C)C)C(C)C)[C@@H](C)O` [SEQ ID NO: 257] (Ac-TVVYVFNEQHQEYVRK-NH2), the IC50 in data set [3] is below 10 µM.
